Test results reported in PubChem BioAssay (NCI).
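Dose response: 5 concentrations. Exposure: 48 h. Format: 96-well plates. Endpoint: linear interpolation; highest concentration if not reached. GI50: concentration for 50% inhibition of growth. Definition used: TGI = concentration required for complete inhibition of growth.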

Columns and labels:
Test in all cases: NCI anticancer screen, dose series, 48 h
IGROV1 ovarian = test system: IGROV1 ovarian
RXF 393 renal = test system: RXF 393 renal
MCF7 breast = test system: MCF7 breast
SK-OV-3 ovarian = test system: SK-OV-3 ovarian
TK-10 renal = test system: TK-10 renal
PC-3 prostate = test system: PC-3 prostate
SNB-75 CNS = test system: SNB-75 CNS
OVCAR-8 ovarian = test system: OVCAR-8 ovarian
SF-539 CNS = test system: SF-539 CNS
HCC-2998 colon = test system: HCC-2998 colon
UACC-62 melanoma = test system: UACC-62 melanoma
SF-295 CNS = test system: SF-295 CNS
SW-620 colon = test system: SW-620 colon
NCI-H460 lung = test system: NCI-H460 lung
HT29 colon = test system: HT29 colon
OVCAR-4 ovarian = test system: OVCAR-4 ovarian
OVCAR-3 ovarian = test system: OVCAR-3 ovarian
MDA-MB-231 breast = test system: MDA-MB-231 breast
CAKI-1 renal = test system: CAKI-1 renal
OVCAR-5 ovarian = test system: OVCAR-5 ovarian
MOLT-4 leukemia = test system: MOLT-4 leukemia
M14 melanoma = test system: M14 melanoma
UACC-257 melanoma = test system: UACC-257 melanoma
HOP-92 NSCLC = test system: HOP-92 NSCLC
NCI-H522 lung = test system: NCI-H522 lung
RPMI-8226 leukemia = test system: RPMI-8226 leukemia
MALME-3M melanoma = test system: MALME-3M melanoma
U251 CNS = test system: U251 CNS
KM12 colon = test system: KM12 colon
CCRF-CEM leukemia = test system: CCRF-CEM leukemia
NCI/ADR-RES ovarian = test system: NCI/ADR-RES ovarian
SK-MEL-2 melanoma = test system: SK-MEL-2 melanoma
UO-31 renal = test system: UO-31 renal
HCT-15 colon = test system: HCT-15 colon
NCI-H226 lung = test system: NCI-H226 lung
SK-MEL-5 melanoma = test system: SK-MEL-5 melanoma
T-47D breast = test system: T-47D breast
A549 NSCLC = test system: A549 NSCLC
HL-60(TB) leukemia = test system: HL-60(TB) leukemia
SR leukemia = test system: SR leukemia
SN12C renal = test system: SN12C renal
SK-MEL-28 melanoma = test system: SK-MEL-28 melanoma
SF-268 CNS = test system: SF-268 CNS
HS 578T breast = test system: HS 578T breast
COLO 205 colon = test system: COLO 205 colon
K-562 leukemia = test system: K-562 leukemia
NCI-H23 lung = test system: NCI-H23 lung
BT-549 breast = test system: BT-549 breast
LOX IMVI melanoma = test system: LOX IMVI melanoma
DU-145 prostate = test system: DU-145 prostate
A498 renal = test system: A498 renal
ACHN renal = test system: ACHN renal
HCT-116 colon = test system: HCT-116 colon
SNB-19 CNS = test system: SNB-19 CNS
786-0 renal = test system: 786-0 renal
HOP-62 NSCLC = test system: HOP-62 NSCLC

`Cn1cc(C2=C(c3cn(C)c4cc(C(N)=O)ccc34)C(=O)NC2=O)c2ccccc21` was tested, and the GI50 (IGROV1 ovarian) was 2.48 µM, the TGI (IGROV1 ovarian) was > 19.7 µM and the GI50 (RXF 393 renal) was 0.559 µM. The TGI (RXF 393 renal) was 1.95 µM, the GI50 (MCF7 breast) was 0.949 µM and the TGI (MCF7 breast) was > 25 µM. The GI50 (SK-OV-3 ovarian) was 1.44 µM, the TGI (SK-OV-3 ovarian) was > 22.2 µM and the GI50 (TK-10 renal) was 3.76 µM. For the same compound, the TGI (TK-10 renal) was > 21 µM, the GI50 (PC-3 prostate) was 0.909 µM and the TGI (PC-3 prostate) was > 25 µM. For the same compound, the GI50 (SNB-75 CNS) was 0.447 µM, the TGI (SNB-75 CNS) was > 7.9 µM and the GI50 (OVCAR-8 ovarian) was 1.67 µM. For the same compound, the TGI (OVCAR-8 ovarian) was > 25 µM, the GI50 (SF-539 CNS) was 0.791 µM and the TGI (SF-539 CNS) was 4.24 µM. The GI50 (HCC-2998 colon) was 5.17 µM, the TGI (HCC-2998 colon) was > 25 µM and the GI50 (UACC-62 melanoma) was 2.31 µM. For the same compound, the TGI (UACC-62 melanoma) was > 16.8 µM, the GI50 (SF-295 CNS) was 0.987 µM and the TGI (SF-295 CNS) was > 25 µM. For the same compound, the GI50 (SW-620 colon) was 1.27 µM, the TGI (SW-620 colon) was > 25 µM and the GI50 (NCI-H460 lung) was 0.854 µM. The TGI (NCI-H460 lung) was > 9.8 µM, the GI50 (HT29 colon) was 0.924 µM and the TGI (HT29 colon) was > 13.5 µM. For the same compound, the GI50 (OVCAR-4 ovarian) was 4.91 µM, the TGI (OVCAR-4 ovarian) was > 25 µM and the GI50 (OVCAR-3 ovarian) was 0.608 µM. For the same compound, the TGI (OVCAR-3 ovarian) was 1.57 µM, the GI50 (MDA-MB-231 breast) was 2.88 µM and the TGI (MDA-MB-231 breast) was 19.9 µM. The GI50 (CAKI-1 renal) was 0.831 µM, the TGI (CAKI-1 renal) was 10.7 µM and the GI50 (OVCAR-5 ovarian) was 11.1 µM. The TGI (OVCAR-5 ovarian) was > 25 µM, the GI50 (MOLT-4 leukemia) was 1.83 µM and the TGI (MOLT-4 leukemia) was > 20.9 µM. For the same compound, the GI50 (M14 melanoma) was 1.08 µM, the TGI (M14 melanoma) was > 25 µM and the GI50 (UACC-257 melanoma) was 3.66 µM. The TGI (UACC-257 melanoma) was > 25 µM, the GI50 (HOP-92 NSCLC) was 2.15 µM and the TGI (HOP-92 NSCLC) was 24.5 µM. It also gave a GI50 (NCI-H522 lung) of 0.471 µM, a TGI (NCI-H522 lung) of 3.2 µM and a GI50 (RPMI-8226 leukemia) of 1.65 µM. The TGI (RPMI-8226 leukemia) was > 20.8 µM, the GI50 (MALME-3M melanoma) was 4.2 µM and the TGI (MALME-3M melanoma) was > 25 µM. The GI50 (U251 CNS) was 1.04 µM, the TGI (U251 CNS) was > 25 µM and the GI50 (KM12 colon) was 1.02 µM. The TGI (KM12 colon) was 6.17 µM, the GI50 (CCRF-CEM leukemia) was 0.951 µM and the TGI (CCRF-CEM leukemia) was > 25 µM. For the same compound, the GI50 (NCI/ADR-RES ovarian) was 1.16 µM, the TGI (NCI/ADR-RES ovarian) was > 25 µM and the GI50 (SK-MEL-2 melanoma) was 1.44 µM. For the same compound, the TGI (SK-MEL-2 melanoma) was > 16.1 µM, the GI50 (UO-31 renal) was 1.81 µM and the TGI (UO-31 renal) was > 20.1 µM. For the same compound, the GI50 (HCT-15 colon) was 1.19 µM, the TGI (HCT-15 colon) was > 25 µM and the GI50 (NCI-H226 lung) was 4.29 µM. For the same compound, the TGI (NCI-H226 lung) was > 21.7 µM, the GI50 (SK-MEL-5 melanoma) was 0.751 µM and the TGI (SK-MEL-5 melanoma) was 3.39 µM. For the same compound, the GI50 (T-47D breast) was 1.98 µM, the TGI (T-47D breast) was > 25 µM and the GI50 (A549 NSCLC) was 1.66 µM. For the same compound, the TGI (A549 NSCLC) was > 25 µM, the GI50 (HL-60(TB) leukemia) was 0.769 µM and the TGI (HL-60(TB) leukemia) was 3.48 µM. The GI50 (SR leukemia) was 0.656 µM, the TGI (SR leukemia) was > 22.8 µM and the GI50 (SN12C renal) was 1.91 µM. For the same compound, the TGI (SN12C renal) was 13.8 µM, the GI50 (SK-MEL-28 melanoma) was 2.66 µM and the TGI (SK-MEL-28 melanoma) was > 25 µM. For the same compound, the GI50 (SF-268 CNS) was 1.74 µM, the TGI (SF-268 CNS) was > 18.3 µM and the GI50 (HS 578T breast) was 0.687 µM. The TGI (HS 578T breast) was 4.02 µM, the GI50 (COLO 205 colon) was 0.914 µM and the TGI (COLO 205 colon) was 6.08 µM. The GI50 (K-562 leukemia) was 0.857 µM, the TGI (K-562 leukemia) was > 25 µM and the GI50 (NCI-H23 lung) was 1.35 µM. For the same compound, the TGI (NCI-H23 lung) was > 25 µM, the GI50 (BT-549 breast) was 7.92 µM and the TGI (BT-549 breast) was > 25 µM. For the same compound, the GI50 (LOX IMVI melanoma) was 1.76 µM, the TGI (LOX IMVI melanoma) was > 25 µM and the GI50 (DU-145 prostate) was 0.987 µM. The TGI (DU-145 prostate) was > 10.2 µM, the GI50 (A498 renal) was 0.47 µM and the TGI (A498 renal) was 2.06 µM. For the same compound, the GI50 (ACHN renal) was 2.64 µM, the TGI (ACHN renal) was > 25 µM and the GI50 (HCT-116 colon) was 1.08 µM. The TGI (HCT-116 colon) was > 21.6 µM, the GI50 (SNB-19 CNS) was 2.15 µM and the TGI (SNB-19 CNS) was > 25 µM. It also gave a GI50 (786-0 renal) of 1.81 µM, a TGI (786-0 renal) of 13.7 µM and a GI50 (HOP-62 NSCLC) of 1.67 µM. For the same compound, the TGI (HOP-62 NSCLC) was > 25 µM.
